Source: PMC9502953 (Molecules, 2022)

Key:
[1] = Fe^3+ reducing ability (K3Fe(CN)6 reduction, absorbance at 700 nm); settings: 30 μg/mL concentration
Method: (§1) The reaction was terminated by adding 1 mL of trichloroacetic acid (TCA, 10%). Following this, 0.5 mL of newly prepared FeCl3 (0.1%) was transferred, and the absorptions were measured at 700 nm. Deionized water was used as the blank control. […] Finally, after 20 min, absorbances were recorded at 450 nm.

[2] = Cu^2+ reducing ability (CUPRAC, neocuproine, absorbance at 450 nm); settings: 30 μg/mL concentration
Method: as §1

[3] = DPPH radical scavenging (Blois method, 517 nm)
Method: (§2) The DPPH radical scavenging activities were assessed by measuring the absorbance at 517 nm after keeping in the dark for 30 min [81]. […] ABTS solution (7.0 mM) was prepared using K2S2O8 ([…]), and the absorbance of the control was set to 0.700 ± 0.025 at 734 nm on dilution with buffer solution (0.1 M and pH 7.4). […] The control included only ABTS radical solution [82]. […] Briefly, 0.2 mL of FeCl3 (50 mM) and 1 mL of DMPD solution were added to the buffer (pH 5.3, 100 mM). The concentrations of all of the samples were 10–30 μg/mL. The total volume was adjusted to […] using deionized water. An aliquot (1 mL) of DMPD radicals was added, and the absorbance was recorded at 505 nm. The radical scavenging results were expressed as half maximal scavenging concentrations (IC50, μg/mL).

[4] = ABTS radical scavenging (734 nm)
Method: as §2

[5] = DMPD radical scavenging (505 nm)
Method: as §2

[6] = parameters: method as in ref 12, 3, 47, 48, 49, 50 (in order of compounds); settings: same concentration; 50 (in order of compounds); cited from earlier work
[7] = cited from earlier work; for DPPH^• removal IC50 (literature): 50 (in order of compounds); for IC50 values for comparison (radical scavenging; assay not given, paragraph on DPPH): 53 (in order of compounds)
[8] = parameters: method as in ref 47, 48, 3, 53, 49, 48, 12, 53, 50 (in order of compounds); settings: 50 (in order of compounds); cited from earlier work
[9] = parameters: method as in ref 12, 43, 3, 44, 45, 46 (in order of compounds); settings: similar quantities; 46 (in order of compounds); cited from earlier work
[10] = biological target: T1, acetylcholinesterase (AChE) (Electrophorus electricus, UniProt O42275); experiment: biochemical
T1 construct: purchased Sigma-Aldrich GmbH (Steinheim, Germany)
Method: AChI and BChI were used as substrates for enzymatic reactions.
(§3) The Ki values and other parameters were calculated from Lineweaver-Burk graphs as described priorly. The Ki values were taken out from this graph. All of the analyses were independently conducted in triplicate, and the results are expressed as mean values ± SD.

[11] = biological target: T2, human carbonic anhydrase II (hCA II) (Homo sapiens, UniProt P00918); experiment: Carbonic anhydrase II inhibition (esterase activity, 348 nm); type: biochemical
T2 construct: from tissue; host or cells: human erythrocytes
Method: The CA II isozyme was purified from human erythrocytes using Sepharose-4B-Tirozyne-sulfanylamide affinity column chromatography. Further, it was precipitated, and the serum was separated and adjusted with solid Tris to pH 8.7. The sample was then loaded to the affinity chromatography column and equilibrated with Tris-Na2SO4/HCl (pH 8.7, 22 mM/25 mM). CA II was eluted with sodium acetate/NaClO4 (0.5 M, pH 5.6, 25 °C). Protein quantity during the purification study was determined using the Bradford method. Bovine serum albumin was used as the standard protein [93]. The purity of CA II was controlled using SDS-PAGE [94]. During purification and inhibition of CA II, esterase activities were performed following the change in absorbance at 348 nm
as §3

T1 sequence (O42275 24-633): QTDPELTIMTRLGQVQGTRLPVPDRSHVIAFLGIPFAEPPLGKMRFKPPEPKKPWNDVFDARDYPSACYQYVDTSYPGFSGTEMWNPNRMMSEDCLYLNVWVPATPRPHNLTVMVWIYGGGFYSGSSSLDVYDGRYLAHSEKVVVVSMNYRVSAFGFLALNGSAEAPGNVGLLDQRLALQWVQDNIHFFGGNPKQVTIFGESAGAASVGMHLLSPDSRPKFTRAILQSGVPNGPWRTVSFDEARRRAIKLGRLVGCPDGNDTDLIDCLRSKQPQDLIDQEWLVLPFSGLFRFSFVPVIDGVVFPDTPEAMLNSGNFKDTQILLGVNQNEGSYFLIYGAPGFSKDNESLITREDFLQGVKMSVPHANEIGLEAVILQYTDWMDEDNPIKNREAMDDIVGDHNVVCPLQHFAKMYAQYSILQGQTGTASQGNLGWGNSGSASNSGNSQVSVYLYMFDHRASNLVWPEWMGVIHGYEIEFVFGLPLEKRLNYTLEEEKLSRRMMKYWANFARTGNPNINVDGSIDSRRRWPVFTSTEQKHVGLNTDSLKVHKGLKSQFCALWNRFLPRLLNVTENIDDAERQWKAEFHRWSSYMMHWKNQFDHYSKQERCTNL

Row | Compound | Fe^3+ Reducing λ (700 nm) absorbance [1] | Cu^2+ Reducing λ (450 nm) absorbance [2] | DPPH^• Scavenging IC50 [3] [µg/mL] | ABTS^•+ Scavenging IC50 [4] [µg/mL] | DMPD^•+ Scavenging IC50 [5] [µg/mL] | Cu^2+-reducing absorbance values (natural phenolics) [6] | DPPH^• removal IC50 (literature) [7] [µg/mL] | IC50 values for comparison (radical scavenging; assay not given, paragraph on DPPH) [7] [µg/mL] | DMPD^•+ removing IC50 (literature) [8] [µg/mL] | Fe^3+-reducing absorbance values (previous studies) [9] | other results
1 | Cc1cc(C(C)(C)C)c(O)c(C(C)(C)C)c1 [BHT, butylated hydroxytoluene] | 0.952 | 2.044 | 25.95 | 6.99 | 8.72 |  |  |  |  |  | 
2 | O=C1c2c(O)cc(O)cc2OC(c2ccc(O)c(O)c2)C1O (centres unmarked) [taxifolin] |  |  |  |  |  | 0.750 | 77.00 | 0.83 | 173.25 |  | 
3 | O=c1[nH]c(=O)c2[nH]c(=O)[nH]c2[nH]1 [uric acid] |  |  |  |  |  |  |  |  |  | 0.432 | 
4 | Cc1c(C)c2c(c(C)c1O)CCC(C)(C(=O)O)O2 (centres unmarked) [Trolox] | 2.119 | 1.548 | 7.059 | 6.16 | 4.33 |  |  |  |  |  | 
5 | C=CCc1ccc(O)c(OC)c1 [eugenol] |  |  |  |  |  | 0.762 | 16.06 | 7.84 | 10.04 |  | 
6 | O=C(O)/C=C/c1ccc(O)c(O)c1 [caffeic acid] |  |  |  |  |  |  |  |  |  | 2.769 | 
7 | O=c1oc2cc(O)ccc2c2oc3cc(O)ccc3c12 [coumestrol] |  |  |  |  |  | 0.739 |  | 25.95 | 12.81 | 0.739 | 
8 | O=C(/C=C/c1ccc(O)c(O)c1)OCCc1ccccc1 [CAPE, caffeic acid phenethyl ester] |  |  |  |  |  |  | 3.30 | 9.80 | 26.70 | 2.509 | 
9 | CCCCCc1cc(O)cc(O)c1 [olivetol] |  |  |  |  |  | 1.314 | 17.77 | 1.94 | 19.25 |  | 
10 | Cc1c(C)c2c(c(C)c1O)CC[C@@](C)(CCC[C@H](C)CCC[C@H](C)CCCC(C)C)O2 [α-Tocopherol] | 0.957 | 0.816 | 11.31 | 8.73 | 7.11 |  |  |  |  |  | 
11 | COc1ccc(O)c(C(C)(C)C)c1 [BHA, butylated hydroxyanisole] | 2.347 | 2.216 | 10.10 | 5.07 | 11.99 |  |  |  |  |  | 
12 | tannic acid |  |  |  |  |  |  |  |  |  | 2.428 | 
13 | L-Adrenaline |  |  |  |  |  |  | 30.6 | 6.93 | 15.6 |  | 
14 | CC(=O)c1c(O)c(C)c(O)c2c1OC1=CC(=O)C(C(C)=O)C(=O)C12C (centres unmarked) [usnic acid] |  |  |  |  |  | 0.277 | 49.50 | 10.41 | 33.00 | 0.278 | 
15 | COc1ccc2c(c1O)-c1c(O)c(OC)cc3c1[C@H](C2)[N+](C)(C)CC3 [Magnofluorine] | 0.967 | 0.458 | 10.58 | 27.61 | 15.26 |  |  |  |  |  | IC50 [10]: 10 nM; IC50 [11]: 26 nM; Ki ([11]; Lineweaver-Burk graphs, mean ± SD, read-out: Ki CA II): 25.4 ± 1.1 nM
